{"source": "paper PMC9103705", "about": "“Effects of Drugs Formerly Proposed for COVID-19 Treatment on Connexin43 Hemichannels” (International Journal of Molecular Sciences, 2022)", "key": {"Cx43 mRNA expression": {"tested_on": "Cx43 mRNA expression", "assay": "RT-qPCR analysis of Cx43 mRNA expression", "type": "cell-based, human", "conditions": "DUBCA-hCx43 cells, 24 h; for Cx43 mRNA expression: CC10, CC10/2 and CC10/10 (all tested concentrations)"}, "Cx43 hemichannels": {"target": "T1, Cx43 hemichannels (Homo sapiens, UniProt P17302)", "T1 construct": "expressed in transfected cells; host or cells: HEK293 (HEK-hCx43, transduced)", "T1 sequence (P17302 whole entry)": "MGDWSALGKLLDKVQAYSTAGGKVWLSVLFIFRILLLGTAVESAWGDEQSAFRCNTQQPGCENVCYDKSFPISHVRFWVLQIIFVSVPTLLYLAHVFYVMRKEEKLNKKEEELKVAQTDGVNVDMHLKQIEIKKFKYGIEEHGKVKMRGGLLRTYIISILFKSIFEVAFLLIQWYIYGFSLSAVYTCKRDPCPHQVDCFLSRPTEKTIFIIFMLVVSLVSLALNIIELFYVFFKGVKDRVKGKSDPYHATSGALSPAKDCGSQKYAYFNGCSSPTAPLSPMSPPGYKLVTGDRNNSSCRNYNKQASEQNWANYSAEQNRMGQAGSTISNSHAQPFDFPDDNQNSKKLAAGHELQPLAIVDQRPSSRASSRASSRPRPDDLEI", "assay": "Cx43 hemichannel activity assay (extracellular ATP release, bioluminescence)", "type": "cell-based", "conditions": "HEK-hCx43 cells; for extracellular ATP levels at lower concentrations: CC10/2: 8.5 µM azithromycin, 7 µM chloroquine, 6.25 µM hydroxychloroquine; for extracellular ATP release at highest applied concentration: lopinavir 190 µM, remdesivir 500 µM (CC10 x10); for extracellular ATP release (Cx43 hemichannel activity) compared to DF control: 30 min exposure in DF buffer"}, "[1]": {"conditions": "retrieved from the literature; cited from earlier work"}, "DUBCA-hCx43 cells": {"tested_on": "DUBCA-hCx43 cells", "assay": "MTT cell viability assay for CC10 determination, 24 h drug exposure", "conditions": "24 h exposure; for CC10 (concentration inducing 10% cell death): extrapolated from concentration-response curves"}, "Cx43 protein expression": {"tested_on": "Cx43 protein expression", "conditions": "cited from earlier work"}, "[2]": {"tested_on": "gap junctional communication", "conditions": "cited from earlier work"}}, "data": [{"smiles": "CC[C@H]1OC(=O)[C@H](C)[C@@H](O[C@H]2C[C@@](C)(OC)[C@@H](O)[C@H](C)O2)[C@H](C)[C@@H](O[C@@H]2O[C@H](C)C[C@H](N(C)C)[C@H]2O)[C@](C)(O)C[C@@H](C)CN(C)[C@H](C)[C@@H](O)[C@]1(C)O", "note": "[Azithromycin (dihydrate), Azithromycin]", "values": [{"measurement": "Cx43 mRNA expression", "setting": "Cx43 mRNA expression", "result": "no effects"}, {"measurement": "extracellular ATP levels at lower concentrations", "setting": "Cx43 hemichannels; 30 min", "result": "increase extracellular ATP levels"}, {"measurement": "Cmax (total peak plasma concentration at therapeutic dose)", "setting": "[1]", "result": "0.52 [23] µM"}, {"measurement": "CC10 (concentration inducing 10% cell death)", "setting": "DUBCA-hCx43 cells", "result": 17, "unit": "µM"}]}, {"smiles": "Cc1cccc(C)c1OCC(=O)N[C@@H](Cc1ccccc1)[C@@H](O)C[C@H](Cc1ccccc1)NC(=O)[C@H](C(C)C)N1CCCNC1=O", "note": "[Lopinavir]", "values": [{"measurement": "Cx43 mRNA expression", "setting": "Cx43 mRNA expression", "result": "no effects"}, {"measurement": "extracellular ATP release at highest applied concentration", "setting": "Cx43 hemichannels; 30 min", "result": "released a significantly higher amount of ATP"}, {"measurement": "CC10 (concentration inducing 10% cell death)", "setting": "DUBCA-hCx43 cells", "result": 19, "unit": "µM"}]}, {"smiles": "NC(=O)c1ncn([C@@H]2O[C@H](CO)[C@@H](O)[C@H]2O)n1", "note": "[Ribavirin]", "values": [{"measurement": "Cx43 mRNA expression", "setting": "Cx43 mRNA expression", "result": "no effects"}, {"measurement": "extracellular ATP release (Cx43 hemichannel activity) compared to DF control", "setting": "Cx43 hemichannels", "result": "not significantly different from the DF control"}, {"measurement": "CC10 (concentration inducing 10% cell death)", "setting": "DUBCA-hCx43 cells", "result": 10, "unit": "µM"}]}, {"smiles": "CCN(CCO)CCCC(C)Nc1ccnc2cc(Cl)ccc12", "note": "(stereo not drawn) [Hydroxychloroquine (sulphate), Hydroxychloroquine]", "values": [{"measurement": "Cx43 mRNA expression", "setting": "Cx43 mRNA expression", "result": "no effects"}, {"measurement": "extracellular ATP levels at lower concentrations", "setting": "Cx43 hemichannels; 30 min", "result": "increase extracellular ATP levels"}, {"measurement": "CC10 (concentration inducing 10% cell death)", "setting": "DUBCA-hCx43 cells", "result": 12.5, "unit": "µM"}, {"measurement": "Cx43 protein expression in cardiomyocytes", "setting": "Cx43 protein expression", "result": "induced an elevation of Cx43 protein expression"}]}, {"smiles": "CC1(C)[C@@H](OC(=O)CCC(=O)O)CC[C@]2(C)[C@H]3C(=O)C=C4[C@@H]5C[C@@](C)(C(=O)O)CC[C@]5(C)CC[C@@]4(C)[C@]3(C)CC[C@@H]12", "note": "[Cbx, carbenoxolone]", "values": [{"measurement": "extracellular ATP release (Cx43 hemichannel activity) compared to DF control", "setting": "Cx43 hemichannels", "result": "lower ATP levels"}]}, {"smiles": "CC(C)c1nc(CN(C)C(=O)N[C@H](C(=O)N[C@@H](Cc2ccccc2)C[C@H](O)[C@H](Cc2ccccc2)NC(=O)OCc2cncs2)C(C)C)cs1", "note": "[Ritonavir]", "values": [{"measurement": "Cx43 mRNA expression", "setting": "Cx43 mRNA expression", "result": "no effects"}, {"measurement": "extracellular ATP release (Cx43 hemichannel activity) compared to DF control", "setting": "Cx43 hemichannels", "result": "not significantly different from the DF control"}, {"measurement": "Cmax (total peak plasma concentration at therapeutic dose)", "setting": "[1]", "result": "1.17 [31] µM"}, {"measurement": "CC10 (concentration inducing 10% cell death)", "setting": "DUBCA-hCx43 cells", "result": 16, "unit": "µM"}]}, {"smiles": "C[C@@H]1C[C@H]2[C@@H]3CCC4=CC(=O)C=C[C@]4(C)[C@@]3(F)[C@@H](O)C[C@]2(C)[C@@]1(O)C(=O)CO", "note": "[Dexamethasone]", "values": [{"measurement": "Cx43 mRNA expression", "setting": "Cx43 mRNA expression", "result": "no effects"}, {"measurement": "concentration dependence of ATP release", "setting": "Cx43 hemichannels; 30 min, stepwise increase in ATP at lower concentrations", "result": "might have a concentration-dependent effect on ATP release"}, {"measurement": "extracellular ATP release (Cx43 hemichannel activity) compared to DF control", "setting": "Cx43 hemichannels", "result": "not significantly different from the DF control"}, {"measurement": "Cmax (total peak plasma concentration at therapeutic dose)", "setting": "[1]", "result": "0.63 [25] µM"}, {"measurement": "cytotoxic effect on the cells", "setting": "DUBCA-hCx43 cells", "result": "did not show any cytotoxic effect"}, {"measurement": "CC10 (concentration inducing 10% cell death)", "setting": "DUBCA-hCx43 cells", "result": ">200", "unit": "µM"}, {"measurement": "gap junctional communication", "setting": "[2]", "result": "reduce gap junctional communication"}]}, {"smiles": "NC(=O)c1nc(F)c[nH]c1=O", "note": "[Favipiravir]", "values": [{"measurement": "Cx43 mRNA expression", "setting": "Cx43 mRNA expression", "result": "no effects"}, {"measurement": "extracellular ATP release (Cx43 hemichannel activity) compared to DF control", "setting": "Cx43 hemichannels", "result": "not significantly different from the DF control"}, {"measurement": "Cmax (total peak plasma concentration at therapeutic dose)", "setting": "[1]", "result": "53.4 [26] µM"}, {"measurement": "cytotoxic effect on the cells", "setting": "DUBCA-hCx43 cells", "result": "did not show any cytotoxic effect"}, {"measurement": "CC10 (concentration inducing 10% cell death)", "setting": "DUBCA-hCx43 cells", "result": ">400", "unit": "µM"}]}, {"smiles": "CCN(CC)CCCC(C)Nc1ccnc2cc(Cl)ccc12", "note": "(stereo not drawn) [Chloroquine (diphosphate), Chloroquine]", "values": [{"measurement": "Cx43 mRNA expression", "setting": "Cx43 mRNA expression", "result": "no effects"}, {"measurement": "extracellular ATP levels at lower concentrations", "setting": "Cx43 hemichannels; 30 min", "result": "increase extracellular ATP levels"}, {"measurement": "Cmax (total peak plasma concentration at therapeutic dose)", "setting": "[1]", "result": "0.81 [24] µM"}, {"measurement": "gap junctional communication", "setting": "[2]", "result": "did not had any effects"}]}, {"smiles": "CCC(CC)COC(=O)[C@H](C)N[P@](=O)(OC[C@H]1O[C@@](C#N)(c2ccc3c(N)ncnn23)[C@H](O)[C@@H]1O)Oc1ccccc1", "note": "[Remdesivir]", "values": [{"measurement": "Cx43 mRNA expression at 5 µM", "setting": "Cx43 mRNA expression; effect only seen at 5 µM", "result": "decrease in Cx43 mRNA expression"}, {"measurement": "extracellular ATP release at highest applied concentration", "setting": "Cx43 hemichannels; 30 min", "result": "released a significantly higher amount of ATP"}, {"measurement": "Cmax (total peak plasma concentration at therapeutic dose)", "setting": "[1]", "result": "9.03 [29] µM"}, {"measurement": "CC10 (concentration inducing 10% cell death)", "setting": "DUBCA-hCx43 cells", "result": 50, "unit": "µM"}]}]}
